The structures appear in SMILES notation.

Assay [1] addresses QPCTL (Homo sapiens (Human), UniProt Q9NXS2). As to the kind of experiment: QPCTL Enzymatic Activity Assay (coupled-enzyme fluorescent assay, H-Gln-AMC substrate). The class given is biochemical. To be noted: recombinant truncated human QPCTL 10-12 nM, 10 μM H-Gln-AMC; read-out: QPCTL Inhibition IC50. Here is the method:
Protein expression was induced when the bacterial culture OD600 was approximately 0.7 using 1 mM IPTG and the cells incubated at 20° C. for approximately 16 hours. The QPCTL was purified using nickel column purification, digested by TEV, followed by a second nickel column purification. The protein was further purified by size-exclusion chromatography using a Superdex™ 75 column. The final protein was concentrated using ultrafiltration tubes at a molecular weight cutoff of 10 kilodaltons and stored frozen in protein buffer (25 mM Tris pH 8.3, 150 mM NaCl).
QPCTL activity was measured in a coupled-enzyme assay using the QPCTL substrate, glutamine-7-amido-4-methylcoumarin (H-Gln-AMC, Bachem), which is converted to pyroglutamyl-AMC by QPCTL. Pyroglutamyl-AMC is then converted to the fluorescent molecule, AMC, by incubation with the human enzyme pyroglutamyl peptidase-1. […] Final concentrations of DMSO and test compounds were 2% and 30-100 μM, respectively. Following the incubation, H-Gln-AMC substrate was diluted in assay buffer and added to each well for a final concentration of 10 μM. The reaction was incubated for 60 min at 37° C., before stopping it by boiling at 100° C. for 5 minutes and cooling the plate at 4° C. for 3 minutes. […] Following incubation, the fluorescence was measured with a plate reader using excitation at 380 nm and emission at 460 nm. […] Concentration-response-curves and IC50 values (Table 17) were generated using curve fit software.

For assay [2], the target named is QPCT (rhQPCT) (Homo sapiens (Human), UniProt Q16769). Briefly: QPCT Enzymatic Activity Assay (coupled-enzyme fluorescent assay, H-Gln-AMC substrate). The class given is biochemical. To be noted: rhQPCT 10-12 nM, 10 μM H-Gln-AMC; read-out: QPCT Inhibition IC50. As to the method:
QPCT activity was measured in a coupled-enzyme assay using the QPCT substrate, glutamine-7-amido-4-methylcoumarin (H-Gln-AMC, Bachem), which is converted to pyroglutamyl-AMC by QPCT. Pyroglutamyl-AMC is then converted to the fluorescent molecule, AMC, by incubation with the human enzyme pyroglutamyl peptidase-1 (PGPEP-1). […] Following the incubation, H-Gln-AMC substrate was diluted in assay buffer and added to each well for a final concentration of 10 μM. The reaction was incubated for 60 min at 37° C., before stopping it by boiling at 100° C. for 5 minutes and cooling the plate at 4° C. for 3 minutes. […] Following incubation, the fluorescence was measured with a plate reader using excitation at 380 nm and emission at 460 nm. […] Concentration-response-curves and IC50 values (Table 17) were generated using Collaborative Drug Discovery software.

Sequence of QPCTL (Q9NXS2 53-382): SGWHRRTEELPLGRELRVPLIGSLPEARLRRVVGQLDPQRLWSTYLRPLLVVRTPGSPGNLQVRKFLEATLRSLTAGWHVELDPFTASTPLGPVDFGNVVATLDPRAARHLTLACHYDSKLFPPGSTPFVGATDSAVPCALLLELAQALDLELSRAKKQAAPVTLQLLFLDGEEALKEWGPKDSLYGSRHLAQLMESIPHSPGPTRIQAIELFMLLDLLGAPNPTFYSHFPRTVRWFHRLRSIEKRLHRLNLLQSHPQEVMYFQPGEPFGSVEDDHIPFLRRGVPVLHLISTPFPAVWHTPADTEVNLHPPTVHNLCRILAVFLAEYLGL
Sequence of QPCT (rhQPCT) (Q16769 29-361): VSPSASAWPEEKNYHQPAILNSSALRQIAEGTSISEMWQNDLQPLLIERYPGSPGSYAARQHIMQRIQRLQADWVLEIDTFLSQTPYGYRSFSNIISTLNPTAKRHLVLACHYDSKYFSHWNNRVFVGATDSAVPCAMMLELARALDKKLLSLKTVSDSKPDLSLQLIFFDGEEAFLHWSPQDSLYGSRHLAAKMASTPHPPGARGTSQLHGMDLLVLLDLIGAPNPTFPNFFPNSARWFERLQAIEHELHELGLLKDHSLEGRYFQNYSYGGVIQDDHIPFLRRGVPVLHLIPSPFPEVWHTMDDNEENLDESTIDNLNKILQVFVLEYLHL

On to `Cn1cnnc1C1CCN(c2c(C#N)cccc2-c2ccc(B(O)O)cc2)CC1` [Example 111, (3′-cyano-2′-(4-(4-methyl-4H-1,2,4-triazol-3-yl)piperidin-1-yl)-[1,1′-biphenyl]-4-yl)boronic acid], for which the half-inhibitory concentration (IC50) in assay [1] is 100 to 1000 nM; in assay [2] it was under 100 nM.

With `COc1ccncc1-c1ccc(-c2ccccc2)c(C#N)c1N1CCC(c2nncn2C)CC1` [Example 32, 4-(4-methoxypyridin-3-yl)-3-[4-(4-methyl-4H-1,2,4-triazol-3-yl)piperidin-1-yl]-[1,1′-biphenyl]-2-carbonitrile], the concentration for half-maximal inhibition (IC50) in assay [1] and in assay [2] was under 100 nM in each case.

With `Cn1cnnc1C1CCN(c2c(C#N)cccc2-c2ccc(C(F)(F)F)nc2)CC1` [Example 29, 2-[4-(4-methyl-4H-1,2,4-triazol-3-yl)piperidin-1-yl]-3-[6-(trifluoromethyl)pyridin-3-yl]benzonitrile], the IC50 in assay [1] and in assay [2] was 100 to 1000 nM throughout.

As to `Cc1cc(-c2ccc(-c3cn[nH]c3)c(C#N)c2N2CCC(c3nncn3C)CC2)cnn1` [Example 74, 2-(4-(4-methyl-4H-1,2,4-triazol-3-yl)piperidin-1-yl)-3-(6-methylpyridazin-4-yl)-6-(1H-pyrazol-4-yl)benzonitrile], the IC50 in assay [1] and in assay [2] was under 100 nM throughout.

For `Cc1cc(-c2ccc(-c3ccn(C)n3)c(C#N)c2N2CCC(c3nncn3C)CC2)cnn1` [Example 61, 6-(1-methyl-1H-pyrazol-3-yl)-2-(4-(4-methyl-4H-1,2,4-triazol-3-yl)piperidin-1-yl)-3-(6-methylpyridazin-4-yl)benzonitrile], the half-inhibitory concentration (IC50) in assay [1] and in assay [2] was under 100 nM each time.

As for `Cc1cc(-c2c(F)ccc(C#N)c2N2CCC(c3nncn3C)CC2)cnn1` [Example 59, 4-fluoro-2-(4-(4-methyl-4H-1,2,4-triazol-3-yl)piperidin-1-yl)-3-(6-methylpyridazin-4-yl)benzonitrile], the concentration for half-maximal inhibition (IC50) in assay [1] and in assay [2] was 100 to 1000 nM each time.

Take `COc1ccncc1-c1cccc(C#N)c1N1CCC(c2cncn2C)CC1` [Example 31, 3-(4-methoxypyridin-3-yl)-2-[4-(1-methyl-1H-imidazol-5-yl)piperidin-1-yl]benzonitrile]: the half-inhibitory concentration (IC50) in assay [1] and in assay [2] was under 100 nM throughout.

On to `Cn1cnnc1C1CCN(c2c(C#N)cccc2-c2cnnc(O)c2)CC1` [Example 52, 3-(6-hydroxypyridazin-4-yl)-2-(4-(4-methyl-4H-1,2,4-triazol-3-yl)piperidin-1-yl)benzonitrile], for which the half-inhibitory concentration (IC50) in assay [1] and in assay [2] was under 100 nM in each case.

As for `Cn1cnnc1C1CCN(c2c(C#N)cccc2-c2cccc(B(O)O)c2)CC1` [Example 112, (3′-cyano-2′-(4-(4-methyl-4H-1,2,4-triazol-3-yl)piperidin-1-yl)-[1,1′-biphenyl]-3-yl)boronic acid], the IC50 in assay [1] and in assay [2] was under 100 nM each time.

Take `Cc1ncn(-c2ccc(-c3ccc(F)nc3)c(N3CCC(c4nncn4C)CC3)c2C#N)n1` [Example 50, 3-(6-fluoropyridin-3-yl)-6-(3-methyl-1H-1,2,4-triazol-1-yl)-2-(4-(4-methyl-4H-1,2,4-triazol-3-yl)piperidin-1-yl)benzonitrile]: the IC50 in assay [1] and in assay [2] was under 100 nM throughout.

As for `COc1ccncc1-c1cccc(C#N)c1N1CCC(n2ccnc2)CC1` [Example 13, 2-[4-(1H-imidazol-1-yl)piperidin-1-yl]-3-(4-methoxypyridin-3-yl)benzonitrile], the IC50 in assay [1] is 1000 to 10000 nM; in assay [2], 100 to 1000 nM.

Turning to `COc1ccncc1-c1cccc(C#N)c1N1CCC(n2cnnc2C)CC1` [Example 18, 3-(4-methoxypyridin-3-yl)-2-[4-(3-methyl-4H-1,2,4-triazol-4-yl)piperidin-1-yl]benzonitrile], the IC50 in assay [1] and in assay [2] was over 10000 nM throughout.

Turning to `Cn1cnnc1C1CCN(c2c(C#N)cccc2-c2ccc(OS(=O)(=O)F)nc2)CC1` [Example 119, 5-(3-cyano-2-(4-(4-methyl-4H-1,2,4-triazol-3-yl)piperidin-1-yl)phenyl)pyridin-2-yl sulfurofluoridate], the results for the IC50 in assay [1] and in assay [2] were under 100 nM and 100 to 1000 nM, respectively.

As to `Cn1ccc(-c2cc(F)c(-c3ccc(F)nc3)c(N3CCC(c4nncn4C)CC3)c2C#N)n1` [Example 131, 4-fluoro-3-(6-fluoropyridin-3-yl)-6-(1-methyl-1H-pyrazol-3-yl)-2-(4-(4-methyl-4H-1,2,4-triazol-3-yl)piperidin-1-yl)benzonitrile], the IC50 in assay [1] lay in the range of 1000 to 10000 nM; in assay [2], 100 to 1000 nM.

For `Cn1cnnc1C1CCN(c2c(C#N)cccc2-c2cncc(OS(=O)(=O)F)c2)CC1` [Example 118, 5-(3-cyano-2-(4-(4-methyl-4H-1,2,4-triazol-3-yl)piperidin-1-yl)phenyl)pyridin-3-yl sulfurofluoridate], the IC50 in assay [1] and in assay [2] was under 100 nM each time.

In the case of `Cn1cnnc1C1CCN(c2c(C#N)c(C3CC3)cc(F)c2-c2ccc(F)nc2)CC1` [Example 135, 6-cyclopropyl-4-fluoro-3-(6-fluoropyridin-3-yl)-2-(4-(4-methyl-4H-1,2,4-triazol-3-yl)piperidin-1-yl)benzonitrile], the results for the IC50 in assay [1] and in assay [2] were 100 to 1000 nM and under 100 nM, respectively.

Take `Cn1cnnc1C1CCN(c2c(C#N)cccc2-c2cncc(Br)c2)CC1` [Example 114, 3-(5-bromopyridin-3-yl)-2-(4-(4-methyl-4H-1,2,4-triazol-3-yl)piperidin-1-yl)benzonitrile]: the IC50 in assay [1] and in assay [2] was under 100 nM in each case.

For the compound `N#Cc1cccc(-c2ccc(F)nc2)c1N1CCC(c2nncs2)CC1` [Example 72, 2-(4-(1,3,4-thiadiazol-2-yl)piperidin-1-yl)-3-(6-fluoropyridin-3-yl)benzonitrile], the IC50 in assay [1] and in assay [2] was 100 to 1000 nM in each case.

In the case of `Cn1cnnc1C1CCN(c2c(C#N)cccc2-c2ccc(Cl)nc2)CC1` [Example 40, 3-(6-chloropyridin-3-yl)-2-[4-(4-methyl-4H-1,2,4-triazol-3-yl)piperidin-1-yl]benzonitrile], the IC50 in assay [1] was under 100 nM; in assay [2] it was 100 to 1000 nM.

Take `Cn1cnnc1C1CCN(c2c(C#N)cccc2-c2cncc3c2OCCN3)CC1` [Example 20, 2-[4-(4-methyl-4H-1,2,4-triazol-3-yl)piperidin-1-yl]-3-{2H,3H,4H-pyrido[4,3-b][1,4]oxazin-8-yl}benzonitrile]: the half-maximal inhibitory concentration (IC50) in assay [1] was 100 to 1000 nM; in assay [2], under 100 nM.

In the case of `CN(C)CCOc1ccc(-c2ccnnc2)c(N2CCC(c3nncn3C)CC2)c1C#N` [Example 58, 6-(2-(dimethylamino)ethoxy)-2-(4-(4-methyl-4H-1,2,4-triazol-3-yl)piperidin-1-yl)-3-(pyridazin-4-yl)benzonitrile], the IC50 in assay [1] and in assay [2] was under 100 nM each time.

`[2H]C([2H])([2H])n1cnnc1C1CCN(c2c(-c3ccc(F)nc3)ccc(-c3cnn(C)c3)c2C#N)CC1` [Example 54, 3-(6-fluoropyridin-3-yl)-6-(1-methyl-1H-pyrazol-4-yl)-2-(4-(4-(methyl-d3)-4H-1,2,4-triazol-3-yl)piperidin-1-yl)benzonitrile]: the IC50 in assay [1] and in assay [2] was under 100 nM each time.

Consider `COc1ccncc1-c1cccc(C#N)c1N1CCC(c2cncs2)CC1` [Example 14, 3-(4-methoxypyridin-3-yl)-2-[4-(1,3-thiazol-5-yl)piperidin-1-yl]benzonitrile], for which the concentration for half-maximal inhibition (IC50) in assay [1] and in assay [2] was 100 to 1000 nM each time.

Turning to `Cn1cnnc1C1CCN(c2c(C#N)cccc2-c2cccc(C=O)c2)CC1` [Example 110, 3′-formyl-2-(4-(4-methyl-4H-1,2,4-triazol-3-yl)piperidin-1-yl)-[1,1′-biphenyl]-3-carbonitrile], the IC50 was 100 to 1000 nM in assay [1] and under 100 nM in assay [2].

Consider `Cn1cnnc1C1CCN(c2c(C#N)cccc2-c2cnccn2)CC1` [Example 5, 2-[4-(4-methyl-4H-1,2,4-triazol-3-yl)piperidin-1-yl]-3-(pyrazin-2-yl)benzonitrile], for which the half-maximal inhibitory concentration (IC50) in assay [1] and in assay [2] was 100 to 1000 nM each time.

As to `COc1ccncc1-c1cccc(C#N)c1N1CCC(c2nnc(N)s2)CC1` [Example 21, 2-[4-(5-amino-1,3,4-thiadiazol-2-yl)piperidin-1-yl]-3-(4-methoxypyridin-3-yl)benzonitrile], the half-inhibitory concentration (IC50) in assay [1] and in assay [2] was 100 to 1000 nM in each case.

Source of the values: patent US20240101544A1, “INHIBITORS OF QPCTL AND QPCT” (priority 2022, published 2024).
